From US6448255B1, “Imidazo-isoquinolin-5-one derivatives, pyrimido-isoquinolin-6-one derivatives and imidazo-naphthyridin-5-one derivatives” (Wyeth, priority 2000, dated 2002)

Columns and labels:
[1] = system: blood serum HDL cholesterol; assay: determination of HDL cholesterol in serum of cholesterol/cholic acid-fed rats; type: in vivo, Male Sprague-Dawley rats; settings: Dose 100 mg/kg/day mixed in diet, 8 days; rats fed chow with 0.25% cholic acid and 1.0% cholesterol; serum HDL cholesterol by FPLC
Protocol: The ability of the compounds of this invention to increase blood serum HDL levels was established by the following standard experimental procedure for determination of HDL cholesterol:
Male Sprague-Dawley rats weighing 200-225 g were housed two per cage and fed Purina Rodent Chow Special Mix 5001-S supplemented with 0.25% cholic acid and 1.0% cholesterol and water ad libitum for 8 days. Each test substance was administered to a group of six rats fed the same diet with the test diet mixed in as 0.005-0.1% of the total diet. Body weight and food consumption were recorded prior to diet administration and at termination. Typical doses of the test substances were 5-100 mg/kg/day.
At termination, blood was collected from anesthetized rats and the serum was separated by centrifugation. Total serum cholesterol was assayed using the Sigma Diagnostics enzymatic kit for the determination of cholesterol, Procedure No. 352, modified for use with ninety-six well microtiter plates. After reconstitution with water the reagent contains 300 U/I cholesterol oxidase, 100 U/I cholesterol esterase, 1000 U/I horse radish peroxidase, 0.3 mmoles/l 4-aminoantipyrine and 30.0 mmoles/l p-hydroxybenzenesulfonate in a pH 6.5 buffer. In the reaction cholesterol was oxidized to produce hydrogen peroxide which was used to form a quinoneimine dye. The concentration of dye formed was measured spectrophotometrically by absorbency at 490 nm after incubation at 25° C. for 30 minutes. The concentration of cholesterol was determined for each serum sample relative to a commercial standard from Sigma.
HDL cholesterol concentrations in serum were determined by separation of lipoprotein classes by fast protein liquid chromatography (FPLC) by a modification of the method of Kieft et al., J. Lipid Res., 32 (1991) 859-866. 25 ul of serum was injected onto Superose 12 and Superose 6 (Pharmacia), in series, with a column buffer of 0.05 M Tris (2-amino-2-hydroxymethyl-1,3-propanediol) and 0.15 M sodium chloride at a flow rate of 0.5 ml/min. The eluted sample was mixed on line with Boehringer-Mannheim cholesterol reagent pumped at […]. The combined eluents were mixed and incubated on line through a knitted coil (Applied Biosciences) maintained at a temperature of 45 C. The eluent was monitored by measuring absorbence at 490 nm and gave a continuous absorbence signal proportional to the cholesterol concentration. The relative concentration of each lipoprotein class was calculated as the percent of total absorbence. HDL cholesterol concentration, in serum, was calculated as the percent of total cholesterol as determined by FPLC multiplied by the total serum cholesterol concentration.

melting point	SMILES	HDL Cholesterol Level Increase (%) [1]
	C[C@H]1CN2C(=O)c3ccccc3[C@@](O)(c3ccc(F)cc3)C2=N1 [Example 6, (2S,10S)-10-(4-Fluorophenyl)-10-hydroxy-2-methyl-2,10-dihydrolmidazo[1,2-b]isoquinolin-5(3H)-one]	38%
203 to 205 °C	O=C1c2ccccc2C(O)(c2ccc(F)cc2)C2=NC3CCCCC3N12 (stereo not drawn) [Example 4, 6-(4-Fluorophenyl)-6-hydroxy-1,3,4,4a,6,12a-hexahydrobenzimidazo[1,2-b]isoquinolin-11(2H)-one]	21%
235 to 237 °C	O=C1c2ccccc2C(O)(c2ccc(Cl)cc2)C2=NCCN12 (stereo not drawn) [Example 11, 10-(4-Chlorophenyl)-10-hydroxy-2,10-dihydroimidazo[1,2-b]isoquinolin-5(3H)-one]	
229 to 232 °C	C[C@@H]1CN2C(=O)c3ccccc3[C@@](O)(c3ccc(F)cc3)C2=N1 [Example 5, (2R, 10S)-10-(4-Fluorophenyl)-10-hydroxy-2-methyl-2,10-dihydroimidazo[1,2-b]isoquinolin-5(3H)-one]	105%
212 to 215 °C	O=C1c2ccccc2C(O)(c2ccc(Br)cc2)C2=NCCN12 (stereo not drawn) [Example 13, 10-(4-Bromophenyl)-10-hydroxy-2,10-dihydroimidazo[1,2-b]isoquinolin-5(3H)-one]	
263 to 265 °C	O=C1c2ccccc2C(O)(c2ccccc2)C2=NCCN12 (stereo not drawn) [Example 12, 10-Hydroxy-10-phenyl-2,10-dihydroimidazo[1,2-b]isoquinolin-5(3H)-one]	
168 to 170 °C	CC1(C)CN2C(=O)c3ccccc3C(O)(c3ccc(F)cc3)C2=N1 (stereo not drawn) [Example 3, 10-(4-Fluorophenyl)-10-hydroxy-2,2-dimethyl-2,10-dihydroimidazo[1,2-b]isoquinolin-5(3H)-one]	90%
126 to 128 °C	O=C1c2ccccc2C(O)(c2ccc(F)cc2)C2=NCCCN12 (stereo not drawn) [Example 2, 11-(4-Fluorophenyl)-11-hydroxy-2,3,4,11-tetrahydro-6H-pyrimido[1,2-b]isoquinolin-6-one]	22%
186 to 188 °C	CC1(C)CN2C(=O)c3ccccc3C(O)(c3ccccc3)C2=N1 (stereo not drawn) [Example 1, 10-Hydroxy-2,2-dimethyl-10-phenyl-2,10-dihydroimidazo[1,2-b]isoquinolin-5(3H)-one]	55%
257 to 260 °C	CC1(C)CN2C(=O)c3ncccc3C(O)(c3ccc(Cl)cc3)C2=N1 (stereo not drawn) [Example 7, 10-(4-Chlorophenyl)-10-hydroxy-2,2-dimethyl-2,10-dihydroimidazo[2,1-g][1,7]naphthyridin-5(3H)-one]	49%
181 to 183 °C	CC1(C)CN2C(=O)c3ccccc3C(O)(c3ccc(Cl)cc3)C2=N1 (stereo not drawn) [Example 10, 10-(4-Chlorophenyl)-10-hydroxy-2,2-dimethyl-2,10-dihydroimidazo[1,2-b]isoquinolin-5(3H)-one]	
128 to 130 °C	O=C1c2ccccc2C(O)(c2ccc(Cl)cc2)C2=NCCCN12 (stereo not drawn) [Example 8, 11-(4-Chlorophenyl)-11-hydroxy-2,3,4,11-tetrahydro-6H-pyrimido[1,2-b]isoquinolin-6-one]	
